Data set [1] deals with CYP3A4/5. Put plainly: CYP3A4/5 inhibition, testosterone 6β-hydroxylation in human liver microsomes. It counts as in vitro ADME. To be noted: for Potential for Time-Dep. Inhibition: comparison with and without 30-minute pre-incubation; for IC50 at 5 min / inhibition at 5 min, 100 µM: human, pooled human liver microsomes, pH 7.4, probe testosterone (6β-hydroxylation). On the procedure: (§1) The basis for many of the following incubation conditions is described in the following references: Madan, et al., 2002,^(1) Huang, 2004,^(3) Ogilvie, et al., 2006,^(6) Pearce, et al., 1996,^(7) Tucker, et al., 2001,^(4) and Walsky and Obach, 2004.^(5) In general, incubations were conducted at approximately 37° C. in 400-μL incubation mixtures (target pH 7.4) containing high purity water, potassium phosphate buffer (50 mM), MgCl2 (3 mM), EDTA (1 mM), an NADPH-generating system [always the mixture of the following: NADP (1 mM), glucose-6-phosphate (5 mM), glucose-6-phosphate dehydrogenase (1 Unit/mL)], and marker substrate at the final concentrations indicated. Pooled human liver microsomes (from sixteen individuals) were used as the source of enzymes (Section 1.3.1.2). The concentrations of marker substrates were based on the Km and Vmax data that were determined previously (data not shown).
(§2) Due to the possibility that boceprevir may bind to microsomal protein or lipids, an attempt was made to design these experiments such that, in as many cases as possible, the microsomal protein, incubation time, and phosphate buffer concentration were 0.1 mg/mL, 5 minutes and 50 mM, respectively, for assays performed with human liver microsomes (Table 1). […] Since it is not imperative that the concentration of marker substrates be exactly equal to Km, the marker substrate concentrations were rounded up or down, as applicable, to simplify the experimental design (data not shown). […] Thus, the final incubation concentration of phenacetin was 60 μM (Table 1).
(§3) The ability of boceprevir to inhibit the CYP enzymes listed in Section 1.2.1 was investigated with a pool of sixteen individual human liver microsomal samples at the concentrations indicated in Table 1. Aliquots of the stock and/or working solutions of boceprevir were manually added to buffer mixtures containing the components described in Section 1.3.21. Incubation mixtures were prepared in bulk to obviate the need for directly pipetting very small volumes (i.e., 1 μL or less). Incubations containing no boceprevir (0 μM) contained the vehicle used to dissolve boceprevir (i.e., 1% methanol).
(§4) The Tecan liquid handling system conducted all remaining incubation steps, with the exception of the centrifugation. Aliquots of the buffer mixtures were then automatically added to 96-well plates at the appropriate locations in duplicate. Aliquots of a substrate working solution were added to the 96-well plates, prior to initiating reactions, to give the final concentrations indicated in Table 1. Reactions were initiated with the addition of an aliquot of an NADPH-generating system. Reactions were automatically terminated at approximately 5 minutes, by the addition of the appropriate internal standard (Table 5) and stop reagent; acetonitrile. Precipitated protein was removed by centrifugation (920 g for 10 minutes at 10° C.). Standards and quality control samples were similarly prepared with the addition of authentic metabolite standards.
(§5) To examine its ability to act as a time-dependent inhibitor, boceprevir (at the same concentrations used to evaluate direct inhibition) was pre-incubated at 37±1° C., in duplicate, with human liver microsomes and an NADPH-generating system for approximately 30 minutes. This pre-incubation allowed for the generation of intermediates that could inhibit human CYP enzymes. The pre-incubations were initiated with the addition of an aliquot of an NADPH-generating system. […] Reactions were automatically terminated, at approximately 5 minutes, by the addition of the appropriate internal standard (Table 5) and stop reagent; acetonitrile. Precipitated protein was removed by centrifugation (920 g for 10 minutes at 10° C.). Incubations containing no boceprevir (0 μM) and incubations that contained boceprevir but were not pre-incubated, served as negative controls.

Data set [2] addresses T1, CYP2A6 (Homo sapiens, UniProt P11509).
T1 construct: Pooled human liver microsomes (from sixteen individuals) were used as the source of enzymes; tissue XenoTech, LLC; host or cells: human liver microsomes, pool of sixteen donors
T1 sequence (P11509 1-494): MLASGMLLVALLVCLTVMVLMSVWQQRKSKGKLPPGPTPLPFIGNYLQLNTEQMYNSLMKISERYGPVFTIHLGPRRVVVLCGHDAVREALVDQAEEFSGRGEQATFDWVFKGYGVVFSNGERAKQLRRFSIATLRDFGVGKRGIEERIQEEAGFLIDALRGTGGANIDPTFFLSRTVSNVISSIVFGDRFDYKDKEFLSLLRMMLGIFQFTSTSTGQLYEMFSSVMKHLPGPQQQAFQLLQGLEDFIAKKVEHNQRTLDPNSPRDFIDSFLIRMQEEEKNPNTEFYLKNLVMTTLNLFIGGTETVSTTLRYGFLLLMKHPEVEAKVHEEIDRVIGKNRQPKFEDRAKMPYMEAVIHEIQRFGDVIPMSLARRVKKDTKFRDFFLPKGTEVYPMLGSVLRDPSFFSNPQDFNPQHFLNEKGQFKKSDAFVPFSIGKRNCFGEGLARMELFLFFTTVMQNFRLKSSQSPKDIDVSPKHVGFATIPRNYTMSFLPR
The data set can be described thus: CYP2A6 inhibition, coumarin 7-hydroxylation in human liver microsomes. It counts as in vitro ADME. The note with it: for Potential for Time-Dep. Inhibition: comparison with and without 30-minute pre-incubation; for inhibition at 5 min, 100 µM: human, pH 7.4, probe coumarin (7-hydroxylation). On the procedure: as §1, §2, §3, §4, §5
Background: Microsomes from liver hold many membrane-bound enzymes, among them those of drug oxidation.

Data set [3] addresses T2, CYP2C19 (Homo sapiens, UniProt P33261).
T2 construct: Pooled human liver microsomes (from sixteen individuals) were used as the source of enzymes; tissue XenoTech, LLC; host or cells: human liver microsomes, pool of sixteen donors
Put plainly: CYP2C19 inhibition, S-mephenytoin 4′-hydroxylation in human liver microsomes. The note with it: for Potential for Time-Dep. Inhibition: comparison with and without 30-minute pre-incubation; for inhibition at 5 min, 100 µM: human, pH 7.4, probe S-mephenytoin (4′-hydroxylation). It counts as in vitro ADME. On the procedure: as §1, §2, §3, §4, §5

Data set [4] has as its target T3, CYP2E1 (Homo sapiens, UniProt P05181).
T3 construct: Pooled human liver microsomes (from sixteen individuals) were used as the source of enzymes; tissue XenoTech, LLC; host or cells: human liver microsomes, pool of sixteen donors
Put plainly: CYP2E1 inhibition, chlorzoxazone 6-hydroxylation in human liver microsomes. It counts as in vitro ADME. To be noted: for Potential for Time-Dep. Inhibition: comparison with and without 30-minute pre-incubation. The protocol:
as §1, §2, §3
The Tecan liquid handling system conducted all remaining incubation steps, with the exception of the centrifugation. Aliquots of the buffer mixtures were then automatically added to 96-well plates at the appropriate locations in duplicate. Aliquots of a substrate working solution were added to the 96-well plates, prior to initiating reactions, to give the final concentrations indicated in Table 1. Reactions were initiated with the addition of an aliquot of an NADPH-generating system. […]

A short description of data set [5]: Qualitative visual solubility in the test system. To be noted: 10 μL of 10 mM methanol stock in 990 μL buffer with human liver microsomes, pH 7.4. In kind it is physicochemical. The protocol:
A stock solution of boceprevir (target concentration of 10 mM) in methanol was prepared and solubility testing was conducted to qualitatively assess boceprevir solubility in the test system. An aliquot (10 μL) of the highest stock boceprevir solution (10 mM in methanol) was added to a 990-μL mixture (target pH 7.4) containing high purity water, potassium phosphate buffer (50 mM), MgCl2 (3 mM), EDTA (1 mM), and human liver microsomes (0.0125 and 0.1 mg/mL) at the final concentrations listed (for a total volume of 1000 μt). […] The stock solution (10 mM boceprevir for IC50 determinations), along with dilutions to working solutions (ranging from 0.01 to 3.0 mM boceprevir) were prepared fresh each day experiments were performed. […] These solutions were prepared fresh on the day the Ki determination experiment was performed. Additionally, a stock concentration of 0.3 mM was used in the NADPH dependence/effects of dilution, as well as the MIC formation experiment.

[6] abbreviates: time-dependent inhibition, 30-minute pre-incubation.
Where [7] appears, read: direct inhibition, zero-minute pre-incubation, pooled human liver microsomes.
[8] abbreviates: pooled human liver microsomes, direct inhibition, zero-minute pre-incubation, read-out: Max. Inhib. at 100 μM.
The mark [9] stands for this setting: pooled human liver microsomes, time-dependent inhibition, 30-minute pre-incubation, read-out: Maximum Inhibition at 100 μM.

Like-named read-outs stand apart in the source and are kept apart here.

T2 sequence (P33261 whole entry): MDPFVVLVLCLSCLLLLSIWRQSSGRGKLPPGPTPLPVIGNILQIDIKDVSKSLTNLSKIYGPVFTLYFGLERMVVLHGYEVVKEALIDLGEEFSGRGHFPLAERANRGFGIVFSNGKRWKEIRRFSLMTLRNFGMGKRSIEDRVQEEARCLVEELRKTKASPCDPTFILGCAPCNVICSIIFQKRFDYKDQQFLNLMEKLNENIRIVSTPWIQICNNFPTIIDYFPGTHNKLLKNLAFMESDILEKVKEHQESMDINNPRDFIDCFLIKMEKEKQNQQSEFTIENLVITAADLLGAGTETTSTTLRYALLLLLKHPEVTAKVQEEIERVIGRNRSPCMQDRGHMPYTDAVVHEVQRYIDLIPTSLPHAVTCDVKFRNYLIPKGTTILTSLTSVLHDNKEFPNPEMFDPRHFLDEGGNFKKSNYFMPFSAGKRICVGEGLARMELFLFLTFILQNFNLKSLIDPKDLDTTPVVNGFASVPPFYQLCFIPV
T3 sequence (P05181 whole entry): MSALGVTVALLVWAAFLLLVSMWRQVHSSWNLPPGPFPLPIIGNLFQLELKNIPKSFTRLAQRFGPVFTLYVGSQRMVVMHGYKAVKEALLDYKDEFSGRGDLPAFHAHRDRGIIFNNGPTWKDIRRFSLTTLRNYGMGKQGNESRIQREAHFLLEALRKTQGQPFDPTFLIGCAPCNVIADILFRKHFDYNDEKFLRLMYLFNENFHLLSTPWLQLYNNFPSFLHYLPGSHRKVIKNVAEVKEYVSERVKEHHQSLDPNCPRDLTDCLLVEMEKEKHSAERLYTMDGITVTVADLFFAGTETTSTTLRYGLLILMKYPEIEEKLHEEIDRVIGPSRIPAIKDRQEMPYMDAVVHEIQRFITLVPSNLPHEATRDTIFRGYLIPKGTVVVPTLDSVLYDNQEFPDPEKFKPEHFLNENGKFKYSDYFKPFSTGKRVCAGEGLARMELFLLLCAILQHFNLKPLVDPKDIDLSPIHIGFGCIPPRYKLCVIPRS

The IC50 is the midpoint of a concentration-inhibition curve. A lower IC50 goes with inhibition by little substance. Consider `CC(C)(C)NC(=O)NC(C(=O)N1CC2C([C@H]1C(=O)NC(CC1CCC1)C(=O)C(N)=O)C2(C)C)C(C)(C)C` (stereo partly drawn) [Boceprevir, (1R,2S,5S)—N-[(2Ξ)-4-amino-1-cyclobutyl-3,4-dioxobutan-2-yl]-3-{(2S)-2-[(tert-butylcarbamoyl)amino]-3,3-dimethylbutanoyl}-6,6-dimethyl-3-azabicyclo[3.1.0]hexane-2-carboxamide], for which the “Potential for Time-Dep. Inhibition” value was “yes^c” in data set [1]; “caused time-dependent inhibition” in data set [1] (listed as boceprevir); “little or no” in data set [2]; “no discernable time-dependent inhibition” in data set [2] (listed as boceprevir); “little or no” in data set [3]; “no discernable time-dependent inhibition” in data set [3] (listed as boceprevir). In addition, the figures for the “Potential for Time-Dep. Inhibition” value in data set [4] and in data set [4] (listed as boceprevir) were “little or no” and “no discernable time-dependent inhibition”, respectively. The IC50 at 5 min in data set [1] (direct inhibition, zero-minute pre-incubation) was over 100 µM; in data set [1] (setting [6]), 2.3 µM. Further, the inhibition at 5 min, 100 µM was 41% in data set [1] (direct inhibition, zero-minute pre-incubation, read-out: Max. Inhib. at 100 μM); 95% in data set [1] (time-dependent inhibition, 30-minute pre-incubation, read-out: Maximum Inhibition at 100 μM); 20% in data set [2] (setting [8]); 7.8% in data set [2] (setting [9]); 25% in data set [3] (setting [8]); 14% in data set [3] (setting [9]). The IC50 in data set [2] (setting [7]), in data set [2] (setting [6]), in data set [3] (setting [7]), in data set [3] (setting [6]), in data set [4] (setting [7]) and in data set [4] (setting [6]) was over 100 µM throughout. Besides, the “Solubility in the test system (qualitative visual comparison)” value in data set [5] is “soluble”.
